Results from patent US20230181614A1, “ADMINISTRATION OF CITICOLINE TO IMPROVE COGNITIVE PERFORMANCE, ATTENTIONAL PERFORMANCE, AND MOTOR FUNCTION” (KYOWA HAKKO BIO CO., LTD., priority 2014, published 2023).
“And” between values parts separate entries of the source, which are not always exact repeats. Equal entries are not always repeated.

Experiments:
[1] = test system: Healthy subjects, ages 13-18; assay: Finger Tap Test (motor speed and control); format: in vivo, human; conditions: for V3-V1 Finger Tap Test Mean Dominant Hand, Mean / V3-V1 Finger Tap Test Mean Non-Dominant Hand, Mean: Visit difference score; for Finger Tap Test Mean Dominant Hand V3, Mean / Finger Tap Test Mean Non-Dominant Hand V3, Mean: Visit 3; for Finger Tap Test Mean Dominant Hand, Mean / Finger Tap Test Mean Non-Dominant Hand, Mean: 250 mg/day
Method: The citicoline-treated group (N=51) were administered 250 mg/day (N=24) or 500 mg/day (N=27). Three finger tap tests were administered over a period of 28 days to measure motor speed and control. Results are expressed as mean ± SD. Statistical analysis was performed using Student’s t test. The p<0.05 was considered statistically significant. Study participants were screened by telephone prior to study enrollment. Healthy subjects, ages 13-18, with no significant medical conditions and no history of co-morbid psychiatric disorder, current Axis I or II diagnosis, or previous participation in a pharmacotherapeutic trial, were selected. Use of any psychotropic medication or any previous head injury resulting in loss of consciousness for 5 or more minutes were used as exclusion criteria. While no participant met criteria for a neuropsychiatric disorder at enrollment, clinical assessments were still completed throughout the study to evaluate changes in mood state. In addition, self-reports of sleep habits, lifestyle, and exercise routines were also administered at baseline as well as at each study visit to assess changes in health habits during study participation. Following the completion of Visit 1 assessment, participants were given their 28-day supply of citicoline (250 mg or 500 mg) or placebo, which was randomly assigned. They were instructed to take one capsule a day every day for the next 28 days. Visit 2 occurred fourteen days after Visit 1. At Visit 2, the remaining study pills were counted and participant dosage calendars were checked to ensure compliance with the protocol. Additional neuropsychological measures and clinical assessments were administered during this visit. Participants returned for Visit 3 fourteen days later, on the 28th day of their study participation. The pill bottle and the dosage calendar were collected from each participant. Urine and blood were again obtained. Participants also participated in similar clinical and neuropsychological testing and clinical measures that were given during visit 1. The finger tap test is used to measure motor speed and control. It is a common assessment measure administered by neuropsychologists to detect cognitive impairment. During the finger tap test, the participant is instructed to use his/her index finger to press a lever attached to a mechanical counter as many times as s/he can within the designated time period. The participant is instructed to move only their index finger, not the entire hand. The same process is completed using the index finger of the dominant and non-dominant hand. The finger tap test was administered at each of the three visits.

[2] = test system: Healthy subjects, ages 13-18; assay: Barratt Impulsiveness Scale (BIS); format: in vivo, human; design: BIS Attention, Mean / BIS Motor, Mean / BIS Total, Mean: scale not given here
From the text: Study participants were screened by telephone prior to study enrollment. Healthy subjects, ages 13-18, with no significant medical conditions and no history of co-morbid psychiatric disorder, current Axis I or II diagnosis, or previous participation in a pharmacotherapeutic trial, were selected. Use of any psychotropic medication or any previous head injury resulting in loss of consciousness for 5 or more minutes were used as exclusion criteria. While no participant met criteria for a neuropsychiatric disorder at enrollment, clinical assessments were still completed throughout the study to evaluate changes in mood state. In addition, self-reports of sleep habits, lifestyle, and exercise routines were also administered at baseline as well as at each study visit to assess changes in health habits during study participation. Following the completion of Visit 1 assessment, participants were given their 28-day supply of citicoline (250 mg or 500 mg) or placebo, which was randomly assigned. They were instructed to take one capsule a day every day for the next 28 days. Visit 2 occurred fourteen days after Visit 1. At Visit 2, the remaining study pills were counted and participant dosage calendars were checked to ensure compliance with the protocol. Additional neuropsychological measures and clinical assessments were administered during this visit. Participants returned for Visit 3 fourteen days later, on the 28th day of their study participation. The pill bottle and the dosage calendar were collected from each participant. Urine and blood were again obtained. Participants also participated in similar clinical and neuropsychological testing and clinical measures that were given during visit 1. The BIS is a questionnaire is a scale used to measure impulsiveness. It includes three subscales: attentional, motor, and non-planning impulsiveness. A total score, or a sum of the three factors, was also calculated. The scale was administered at the first and third visits to assess presence or absence of symptoms of impulsiveness.

## C[N+](C)(C)CCOP(=O)(O)OP(=O)([O-])OC[C@H]1O[C@@H](n2ccc(N)nc2=O)[C@H](O)[C@@H]1O [citicoline, Cytidine 5′-diphosphocholine]
[1]; 250 mg/day group
  V3-V1 Finger Tap Test Mean Dominant Hand, Mean: 4.87
  V3-V1 Finger Tap Test Mean Non-Dominant Hand, Mean: 2.49
  Finger Tap Test Mean Dominant Hand V3, Mean: 51.59
  Finger Tap Test Mean Non-Dominant Hand V3, Mean: 47.01
[1]; V1 (baseline)
  Finger Tap Test Mean Dominant Hand, Mean: 46.72
  Finger Tap Test Mean Non-Dominant Hand, Mean: 44.52
[1]; V3 (day 28)
  Finger Tap Test Mean Dominant Hand, Mean: 51.59
  Finger Tap Test Mean Non-Dominant Hand, Mean: 47.01
[1]; 500 mg/day group, Visit 1
  Finger Tap Test Mean Dominant Hand V1, Mean: 49.44
  Finger Tap Test Mean Non-Dominant Hand V1, Mean: 44.89
[1]; 500 mg/day group
  V3-V1 Finger Tap Test Mean Dominant Hand, Mean: 2.61
  V3-V1 Finger Tap Test Mean Non-Dominant Hand, Mean: 2.21
  Finger Tap Test Mean Dominant Hand V3, Mean: 52.05
  Finger Tap Test Mean Non-Dominant Hand V3, Mean: 47.10
[2]; 250 mg/day, V1 (baseline)
  BIS Attention, Mean: 18.52
  BIS Motor, Mean: 22.22
  BIS Non-planning, Mean: 24.85
  BIS Total, Mean: 65.59
[2]; 250 mg/day, V3 (day 28)
  BIS Attention, Mean: 18.59
  BIS Motor, Mean: 22.00
  BIS Non-planning, Mean: 24.44
  BIS Total, Mean: 65.04
[2]; 250 mg/day, V3-V1
  BIS Attention, Mean: 0.07
  BIS Motor, Mean: -0.22
  BIS Non-planning, Mean: -0.41
[2]; 500 mg/day, V1 (baseline)
  BIS Attention, Mean: 16.54
  BIS Motor, Mean: 20.21
  BIS Non-planning, Mean: 22.67
  BIS Total, Mean: 59.63
[2]; 500 mg/day, V3 (day 28)
  BIS Attention, Mean: 16.50
  BIS Motor, Mean: 20.04 and 19.29
  BIS Non-planning, Mean: 21.71 and 22.42
  BIS Total, Mean: 58.21
[2]; 500 mg/day, V3-V1
  BIS Attention, Mean: -0.04
  BIS Motor, Mean: -1.00
  BIS Non-planning, Mean: -0.38
  BIS Total, Mean: -1.42
